Molecules are shown by their SMILES. Converted amounts (≈) assume the structure as drawn. Read-outs that look alike come from different tables or passages of the source. Where only a bound is given, the exact number is not on record here.

Test [1] relates to E. coli DH10B EC1153 Tet(X). The test can be described thus: MIC, E. coli DH10B recombinantly expressing tetracycline-resistance gene. Conditions: arabinose-induced, ampicillin in medium.
The test system of another test is E. coli DH10B EC970 TetK. Described as above. Particulars: arabinose-induced, ampicillin in medium.
Test [2] concerns E. coli DH10B EC1082 TetA. The description is as above. Conditions: arabinose-induced, ampicillin in medium.
A further test concerns E. coli DH10B EC969 TetM. Described as above. Particulars: arabinose-induced, ampicillin in medium.
The test system of test [3] is E. coli DH10B EC1083 TetB. The test is described as above. Particulars: arabinose-induced, ampicillin in medium.
The next test concerns E. coli DH10B EC971 LacZ. As to the kind of experiment: MIC, E. coli DH10B recombinantly expressing control gene. Conditions: E. coli DH10B, arabinose-induced, ampicillin in medium.
Another test relates to Gram-positive pathogens. The test can be described thus: Broth microdilution MIC, respiratory/skin pathogens (Table 12). Conditions: E. faecalis, VAN S (n = 53).
The next test deals with S. aureus Smith. The test can be described thus: Mouse systemic infection (septicemia) model, CD-1 mice. Particulars: Staphylococcus aureus, in Mus musculus, 48 h; for responders at 3 mg/kg: iv, read-out: Percent survival at 48 hours, IV (3 mg/kg); for responders at 30 mg/kg: po, read-out: Percent survival at 48 hours, PO (30 mg/kg).
Test [4] has as its system Gram-negative and Gram-positive organisms (clinical isolates). As to the kind of experiment: Broth microdilution MIC against clinical isolates (CLSI M7-A8), Table 9. The format is cell-based. A general note: Dilution methods test growth across graded concentrations, often in twofold steps.
Test [5] relates to Legionella pneumophila, 70 isolates, serogroups 1-6. As to the kind of experiment: microbe, parasite or virus in culture. It counts as cell-based.

On to `CO/N=C(\C(=O)N[C@@H]1C(=O)N2C(C(=O)O)=C(CSc3nc(=O)c(=O)[nH]n3C)CS[C@H]12)c1csc(N)n1` [Ceftriaxone], for which the “MIC EC1153 Tet(X)” value in [1] was 0.125. In addition, in the test on E. coli DH10B EC970 TetK, the “MIC EC970 TetK” value amounted to 0.0625. In addition, the “MIC EC1082 TetA” value in test [2] is reported as 0.0625. The “MIC EC969 TetM” value with E. coli DH10B EC969 TetM was 0.5. The “MIC EC1083 TetB” value in test [3] amounted to 0.0625. The “MIC EC971 LacZ” value in the test with E. coli DH10B EC971 LacZ is listed as 0.125.
Regarding `CCC[C@@H]1C[C@@H](C(=O)N[C@@H]([C@H]2O[C@H](SC)[C@H](O)[C@@H](O)[C@H]2O)[C@H](C)Cl)N(C)C1` [Clindarnycin], in the test with Gram-positive pathogens, the MIC50 is > 2 µg/mL and the MIC90 was > 2 µg/mL.
With `CC(C)N1Cc2c(O)c3c(c(C(F)(F)F)c2C1)C[C@H]1C[C@H]2[C@H](N(C)C)C(O)=C(C(N)=O)C(=O)[C@@]2(O)C(O)=C1C3=O` [Compound 126], in the test with S. aureus Smith, the responders at 3 mg/kg came to 83% and the responders at 30 mg/kg was 100%.
With `CC[C@@H](C)N1Cc2c(O)c3c(c(C(F)(F)F)c2C1)C[C@H]1C[C@H]2[C@H](N(C)C)C(O)=C(C(N)=O)C(=O)[C@@]2(O)C(O)=C1C3=O` [Compound 128], in the test with S. aureus Smith, the responders at 3 mg/kg amounted to 17% and the responders at 30 mg/kg turned out to be 0%.
For the molecule `CCC(C)(C)N1Cc2c(O)c3c(c(F)c2C1)C[C@H]1C[C@H]2[C@H](N(C)C)C(O)=C(C(N)=O)C(=O)[C@@]2(O)C(O)=C1C3=O` [Compound 129], in the test with S. aureus Smith, the responders at 3 mg/kg stood at 50% and the responders at 30 mg/kg was found to be 0%.
As to `CC[C@@H](C)N1Cc2c(O)c3c(c(F)c2C1)C[C@H]1C[C@H]2[C@H](N(C)C)C(O)=C(C(N)=O)C(=O)[C@@]2(O)C(O)=C1C3=O` [Compound 130], in the test with S. aureus Smith, the responders at 3 mg/kg was found to be 33% and the responders at 30 mg/kg was 83%.
The matching figures for `CN(C)CC(=O)N1Cc2c(O)c3c(c(F)c2C1)C[C@H]1C[C@H]2[C@H](N(C)C)C(O)=C(C(N)=O)C(=O)[C@@]2(O)C(O)=C1C3=O` [Compound 131]: 100% and 17%.
`CN(C)[C@@H]1C(O)=C(C(N)=O)C(=O)[C@@]2(O)C(O)=C3C(=O)c4c(O)c5c(c(F)c4C[C@H]3C[C@@H]12)CN(C1CCC1)C5` [Compound 132]: in the test with S. aureus Smith, the responders at 3 mg/kg was 50% and the responders at 30 mg/kg was 50%.
As for `CC(C)N1Cc2c(O)c3c(c(N(C)C)c2C1)C[C@H]1C[C@H]2[C@H](N(C)C)C(O)=C(C(N)=O)C(=O)[C@@]2(O)C(O)=C1C3=O` [Compound 135], in the test on S. aureus Smith, the responders at 3 mg/kg was 100% and the responders at 30 mg/kg turned out to be 100%.
As to `CC(C)[C@H](C)N1Cc2c(O)c3c(c(F)c2C1)C[C@H]1C[C@H]2[C@H](N(C)C)C(O)=C(C(N)=O)C(=O)[C@@]2(O)C(O)=C1C3=O` [Compound 137], in the test with S. aureus Smith, the responders at 3 mg/kg is 33% and the responders at 30 mg/kg is 33%.
In the case of `CC(C)N1Cc2c(O)c3c(c(F)c2C1)C[C@H]1C[C@H]2[C@H](N(C)C)C(O)=C(C(N)=O)C(=O)[C@@]2(O)C(O)=C1C3=O` [Compound 143], in the test with S. aureus Smith, the responders at 3 mg/kg came to 83% and the responders at 30 mg/kg stood at 100%.
`CN(C)[C@@H]1C(O)=C(C(N)=O)C(=O)[C@@]2(O)C(O)=C3C(=O)c4c(O)c5c(c(Cl)c4C[C@H]3C[C@@H]12)CN(C(C)(C)C)C5` [Compound 144]: in the test with S. aureus Smith, the responders at 3 mg/kg worked out at 50% and the responders at 30 mg/kg is 0%.
Take `CN(C)[C@@H]1C(O)=C(C(N)=O)C(=O)[C@@]2(O)C(O)=C3C(=O)c4c(O)c5c(c(F)c4C[C@H]3C[C@@H]12)CN(C(=O)CN1CC[C@H](F)C1)C5` [Compound 147]: in the test with S. aureus Smith, the responders at 3 mg/kg was 83% and the responders at 30 mg/kg was 0%.
Regarding `CCCN1Cc2c(O)c3c(c(Cl)c2C1)C[C@H]1C[C@H]2[C@H](N(C)C)C(O)=C(C(N)=O)C(=O)[C@@]2(O)C(O)=C1C3=O` [Compound 149], in the test on S. aureus Smith, the responders at 3 mg/kg worked out at 17% and the responders at 30 mg/kg came out at 0%.
On to `CCC(C)(C)N1Cc2c(O)c3c(c(Cl)c2C1)C[C@H]1C[C@H]2[C@H](N(C)C)C(O)=C(C(N)=O)C(=O)[C@@]2(O)C(O)=C1C3=O` [Compound 150], for which, in the test on S. aureus Smith, the responders at 3 mg/kg was determined as 0% and the responders at 30 mg/kg was 0%.
As to `CCCN1CCc2c(O)c3c(c(F)c2C1)C[C@H]1C[C@H]2[C@H](N(C)C)C(O)=C(C(N)=O)C(=O)[C@@]2(O)C(O)=C1C3=O` [Compound 304], in the test with S. aureus Smith, the responders at 3 mg/kg was 0% and the responders at 30 mg/kg stood at 17%.
With `CC(C)CN1CC(=O)Nc2c(O)c3c(c(F)c2C1)C[C@H]1C[C@H]2[C@H](N(C)C)C(O)=C(C(N)=O)C(=O)[C@@]2(O)C(O)=C1C3=O` [Compound 400], in the test with S. aureus Smith, the responders at 3 mg/kg turned out to be 100% and the responders at 30 mg/kg turned out to be 0%.
On to `C[C@@H]1C(=O)Nc2c(O)c3c(c(F)c2CN1C)C[C@H]1C[C@H]2[C@H](N(C)C)C(O)=C(C(N)=O)C(=O)[C@@]2(O)C(O)=C1C3=O` [Compound 406], for which, in the test on S. aureus Smith, the responders at 3 mg/kg was found to be 100% and the responders at 30 mg/kg amounted to 40%.
Consider `CC(C)C[C@@H]1CNc2c(O)c3c(c(F)c2CN1)C[C@H]1C[C@H]2[C@H](N(C)C)C(O)=C(C(N)=O)C(=O)[C@@]2(O)C(O)=C1C3=O` [Compound 408], for which, in the test on S. aureus Smith, the responders at 3 mg/kg is 100% and the responders at 30 mg/kg stood at 0%.
On the same counts, the results for `CN(C)[C@@H]1C(O)=C(C(N)=O)C(=O)[C@@]2(O)C(O)=C3C(=O)c4c(O)c5c(c(F)c4C[C@H]3C[C@@H]12)CN1CCCC[C@@H]1C(=O)N5` [Compound 410] are 100% and 50%.
On to `CN(C)[C@@H]1C(O)=C(C(N)=O)C(=O)[C@@]2(O)C(O)=C3C(=O)c4c(O)c5c(c(F)c4C[C@H]3C[C@@H]12)CN1CCC[C@H]1C(=O)N5` [Compound 412], for which, in the test on S. aureus Smith, the responders at 3 mg/kg amounted to 100% and the responders at 30 mg/kg is 40%.
On to `CN1CC(=O)Nc2c(O)c3c(c(F)c2C1)C[C@H]1C[C@H]2[C@H](N(C)C)C(O)=C(C(N)=O)C(=O)[C@@]2(O)C(O)=C1C3=O` [Compound 416], for which, in the test with S. aureus Smith, the responders at 3 mg/kg is 100% and the responders at 30 mg/kg was 20%.
As for `CC(C)C[C@H]1NCc2c(F)c3c(c(O)c2NC1=O)C(=O)C1=C(O)[C@]2(O)C(=O)C(C(N)=O)=C(O)[C@@H](N(C)C)[C@@H]2C[C@@H]1C3` [Compound 419], in the test on S. aureus Smith, the responders at 3 mg/kg was determined as 100% and the responders at 30 mg/kg was found to be 40%.
`CC(C)C[C@@H]1C(=O)Nc2c(O)c3c(c(F)c2CN1C)C[C@H]1C[C@H]2[C@H](N(C)C)C(O)=C(C(N)=O)C(=O)[C@@]2(O)C(O)=C1C3=O` [Compound 428]: in the test on S. aureus Smith, the responders at 3 mg/kg was 50% and the responders at 30 mg/kg stood at 0%.
With `CC[C@H]1OC(=O)[C@H](C)[C@@H](O[C@H]2C[C@@](C)(OC)[C@@H](O)[C@H](C)O2)[C@H](C)[C@@H](O[C@@H]2O[C@H](C)C[C@H](N(C)C)[C@H]2O)[C@](C)(O)C[C@@H](C)C(=O)[C@H](C)[C@@H](O)[C@]1(C)O` [Erythromycin], the MIC50 was 0.03 µg/mL (≈ 0.0409 µM) in test [4]; > 4 µg/mL in [4] (Staphylococcus aureus); 0.03 µg/mL (≈ 0.0409 µM) in [4] (Streptococcus anginosus); 0.06 µg/mL (≈ 0.0818 µM) in test [4] (Streptococcus intermedius); > 0.5 µg/mL in test [4] (Streptococcus mitis); 0.25 µg/mL (≈ 0.341 µM) in test [5]. The MIC90 in test [4] is > 0.5 µg/mL; in test [4] (Staphylococcus aureus) it was > 4 µg/mL; in test [4] (Streptococcus anginosus) it was > 0.5 µg/mL; in test [4] (Streptococcus intermedius), > 0.5 µg/mL; in test [4] (Streptococcus mitis), > 0.5 µg/mL; in test [5], 0.5 µg/mL (≈ 0.681 µM).
For `C[C@@H](O)[C@H]1C(=O)N2C(C(=O)O)=C(SCCN=CN)C[C@H]12` [Imipenern], in the test on Gram-positive pathogens, the MIC50 stood at 1 µg/mL (≈ 3.34 µM) and the MIC90 is 1 µg/mL (≈ 3.34 µM).

The record behind these values is patent US20170107179A1 (Tetraphase Pharmaceuticals, Inc., priority 2010, published 2017).
